We go through four molecules from patent US20080103191A1, “ENTACAPONE-DERIVATIVES” (priority 2006, published 2008).

In brackets after ≈: the same amount, converted by molar mass. Where two headings read alike, the source gives them in different places.

Type in all cases: physicochemical
Data set [1] is described as follows: Chemical hydrolysis stability at pH 1 and pH 7.4 (HPLC). The settings on record: 37° C., over 12 h. A digest of the protocol: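 Compound dissolved in 0.1 N HCl or PBS and held at 37° C over 12 h, sampling at set intervals for remaining prodrug by reversed-phase C8 HPLC with 220 nm detection. Peak areas expressed relative to first injection, ln-plotted against time; t1/2 [h] derived assuming first-order kinetics.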

Data set [2] in a line: Log D (pH 7.4) by isocratic HPLC. Conditions: YMC Pro C18 column, phosphate buffer pH 7.4/acetonitrile 45/55. The gist of the method:
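Retention measured by isocratic HPLC on a C18 column (150 mm×4.0 mm, 3 μm) eluted with phosphate buffer pH 7.4/acetonitrile 45/55 (v/v) at 1.2 ml/min, run time 15-60 min. Detection at 220 nm.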

A short description of data set [3]: Solubility in Labrasol and TPGS/PG formulations. As to the method: Selected lipophilic carbonate compounds of formula I with promising Caco-2 permeabilities are formulated with different lipids/lipophilic excipients and/or micelles forming compounds in order to increase their solubilities. The following formulations are prepared by mixing the ingredients mentioned below: • i) Formulations comprising solubilizers in the form of lipides/lipophilic excipients: • ia) Formulation comprising Labrasol® and the selected compounds of Formula I • Labrasol®: • Caprylocaproyl macrogol-8-glyceride (CAS No. 85536-07-8 and 84963-88-2). This is a mixture of mono-, di- and triesters of glycerol and of PEG 400 with medium-chain fatty acids (C8-C10) which is marketed, for example, by Gattefossé under the mark Labrasol®; Labrasol® has an HLB value (hydrophil-lipophil-balance, Griffin, W. C.: Classification of surface active agents by HLB, J. Soc. Cosmet. 1, 1949) of 14 and has the following composition by weight:
• ib) Formulation comprising NanoSolve® 5401 (Lipoid GmbH, Germany) and the selected compounds of formula I • ic) Formulation comprising TPGS/PG in a weight ratio of 25% by weight of TPGS to 75% by weight of PG and the selected compounds of formula I. • PG: propylene glycol • TPGS: Vitamin E TPGS NF (d-α-tocopheryl polyethylene glycol 1000 succinate) which is marketed, for example, by Eastman Chemical Co • ii) Formulation comprising a micelles forming agent: • iia) Aqueous formulation comprising 30% by weight of Cremophor® RH 40 (relating to the weight of the aqueous phase) in water and the selected compounds of formula I • Cremophor® RH 40: • Generic names: • Polyoxyl 40 Hydrogenated Castor Oil (USP/NF). • Macrogol-Glycerolhydroxystearat (DAB). • Polyoxyethylenglyceroltrihydroxystearat (DAC). • Cremophor RH 40 is a non-ionic solubilizer and emulsifying agent obtained by reacting 45 moles of ethylene oxide with 1 mole of hydrogenated castor oil. The main constituent of Cremophor RH 40 is glycerol polyethylene glycol oxystearate, which, together with fatty acid glycerol polyglycol esters, forms the hydrophobic part of the product. The hydrophilic part consists of polyethylene glycols and glycerol ethoxylate. Cremophor RH 40 is a white to yellowish thin paste at 20° C. The HLB value lies between 14 and 16. Cremophor RH 40 is marketed by BASF AG.
The solubility of selected compounds of formula I in these formulations is measured and compared to the solubility of the compounds in 0.1N HCl (pH 1.0), PBS buffer (pH 7.4), and two simulated gastric fluids (i.e., FaSSIF (pH 6.5) simulating fasting sate and FeSSIF (pH 5.0) simulating fed state) (see above for details).

Data set [4] in a line: Stability of Labrasol formulations in simulated gastric fluid (precipitate formation). Conditions: for Precipitate formation, directly after addition: 3 mg in 1.5 mL Labrasol added to 10 mL SGF, visual inspection; for Precipitate formation, 5 min / Precipitate formation, 15 min / Precipitate formation, 30 min / Precipitate formation, 60 min / Precipitate formation, 24 h: Labrasol solution in SGF. The protocol: (§1) Simulated gastric fluid (SGF) is prepared as follows. 200 mg NaCl are dissolved in 70 mL H2O. 0.7 mL concentrated HCl is added. Subsequently, 320 mg of pepsin powder is added, and the mixture is filled up to 100 mL with H2O. A clear solution is obtained (pH 1-2).
1.5 mL of Labrasol® is added to 3 mg of the respective compound of formula I, and the obtained solutions are shaken. Subsequently, each of the solutions is added to 10 mL SGF by drop-wise addition. Precipitate formation is determined by visual inspection of each solution immediately after the addition of the solution comprising the respective compound of formula I in Labrasol® to SGF and after 5, 15, 30, and 60 min, and 24 h.

The nature of data set [5]: Stability of TPGS/PG formulations in simulated gastric fluid (precipitate formation). The settings on record: for Precipitate formation, directly after addition: 1.0 mL TPGS/PG solution added to 10 mL SGF, visual inspection; for Precipitate formation, 24 h: TPGS/PG solution in SGF. As to the method:
as §1
2 mL TPGS/PG is added to 5-6 mg of the respective compound of formula I, and the obtained solutions are shaken for 5 h. […] 1.0 mL of the centrifuged solution is added drop-wise to 10 mL SGF. Precipitate formation is determined by visual inspection of each solution immediately after addition of the solution comprising the respective compound of formula I in TPGS/PG to SGF and after 24 hours.

[6] abbreviates: pH 1, 0.1 N HCl, read-out: t1/2 at pH 1 (converted).
Where [7] appears, read: pH 7.4, PBS buffer, read-out: t1/2 at pH 7.4 (converted).
Where [8] appears, read: Labrasol, oil or lipid, read-out: Solubility Labrasol ®.
[9] abbreviates: organic solvent or mixture, 25% by weight TPGS, 75% by weight PG, read-out: Solubility TPGS/PG.

For the molecule `CCN(CC)C(=O)/C(C#N)=C/c1cc(OC(=O)OCC2CCCCC2)c(O)c([N+](=O)[O-])c1` [Compound 57, Carbonic acid 5-((E)-2-cyano-2-diethylcarbamoyl-vinyl)-2-hydroxy-3-nitro-phenyl ester cyclohexylmethyl ester], the half-life in data set [1] (setting [6]) is 990 min. Besides, in data set [1] (setting [7]), the half-life was 462 min. Also, the chromatographic logD in data set [2] was found to be 2.3. Besides, the solubility in data set [3] (setting [8]) came to 22000 µg/mL (≈ 49.4 mM). Besides, the solubility in data set [3] (setting [9]) turned out to be 2500 µg/mL (≈ 5.61 mM). For the same molecule, in data set [4] (after shaking), the “Precipitate formation, directly after addition” value (shortened to “Precipitate formation, directly”) is listed as “clear after shaking”. The “Precipitate formation, directly” value in data set [4] (initially, before shaking) is “First: white precipitate;”. Also, in data set [4], the “Precipitate formation, 5 min” value is listed as “clear”; the “Precipitate formation, 15 min” value was “clear”; the “Precipitate formation, 30 min” value is given as “clear”; the “Precipitate formation, 60 min” value is on record as “clear”. Besides, in data set [4], the “Precipitate formation, 24 h” value is given as “clear”. In data set [5], the “Precipitate formation, directly” value is “clear” and the “Precipitate formation, 24 h” value is listed as “clear”.
For `CCCCC(CC)COC(=O)Oc1cc(/C=C(\C#N)C(=O)N(CC)CC)cc([N+](=O)[O-])c1O` (centres unmarked) [Compound 15, Carbonic acid 5-((E)-2-cyano-2-diethylcarbamoyl-vinyl)-2-hydroxy-3-nitro-phenyl ester 2-ethyl-hexyl ester], in data set [1] (setting [6]), the half-life is 936 min. For the same molecule, the half-life in data set [1] (setting [7]) is 432 min. The molecule also registered a chromatographic logD in data set [2] of 2.9. Moreover, the solubility in data set [3] (setting [8]) turned out to be 50000 µg/mL (≈ 108 mM). For the same molecule, in data set [3] (setting [9]), the solubility stood at 2400 µg/mL (≈ 5.2 mM). Also, the “Precipitate formation, directly” value in data set [4] (after shaking) is “clear after shaking”. In data set [4] (initially, before shaking), the “Precipitate formation, directly” value is “First: white precipitate;”. Further, in data set [4], the “Precipitate formation, 5 min” value is recorded as “clear”; the “Precipitate formation, 15 min” value is listed as “clear”; the “Precipitate formation, 30 min” value is reported as “clear”; the “Precipitate formation, 60 min” value is reported as “clear”. In data set [4], the “Precipitate formation, 24 h” value is on record as “clear”. Further, in data set [5], the “Precipitate formation, directly” value was “clear” and the “Precipitate formation, 24 h” value is recorded as “clear”.
Turning to `CCCCCCCCOC(=O)Oc1cc(/C=C(\C#N)C(=O)N(CC)CC)cc([N+](=O)[O-])c1O` [Compound 35, Carbonic acid 5-((E)-2-cyano-2-diethylcarbamoyl-vinyl)-2-hydroxy-3-nitro-phenyl ester octyl ester], the half-life in data set [1] (setting [6]) was 864 min. For the same molecule, the half-life in data set [1] (setting [7]) is 408 min. This molecule returned a chromatographic logD in data set [2] of 3.1. Also, the solubility in data set [3] (setting [8]) is > 36000 µg/mL. In data set [3] (setting [9]), the solubility came to 2300 µg/mL (≈ 4.98 mM). In data set [4] (after shaking), the “Precipitate formation, directly” value is listed as “clear after shaking”. In addition, the “Precipitate formation, directly” value in data set [4] (initially, before shaking) is on record as “First: white precipitate;”. In addition, in data set [4], the “Precipitate formation, 5 min” value is recorded as “clear”; the “Precipitate formation, 15 min” value was “clear”; the “Precipitate formation, 30 min” value is given as “clear”; the “Precipitate formation, 60 min” value is “clear”. Moreover, in data set [4], the “Precipitate formation, 24 h” value is “clear”. In addition, in data set [5], the “Precipitate formation, directly” value is “clear” and the “Precipitate formation, 24 h” value is listed as “clear”.
With `CCCC(C)OC(=O)Oc1cc(/C=C(\C#N)C(=O)N(CC)CC)cc([N+](=O)[O-])c1O` (centres unmarked) [Compound 63, Carbonic acid 5-((E)-2-cyano-2-diethylcarbamoyl-vinyl)-2-hydroxy-3-nitro-phenyl ester 1-methyl-butyl ester], the half-life in data set [1] (setting [6]) is 1730 min. Further, the half-life in data set [1] (setting [7]) was 1730 min. In data set [2], this molecule gave a chromatographic logD of 1.4. Besides, the solubility in data set [3] (setting [8]) amounted to 10000 µg/mL (≈ 23.8 mM). Further, in data set [3] (setting [9]), the solubility was 1800 µg/mL (≈ 4.29 mM). Besides, the “Precipitate formation, directly” value in data set [4] (after shaking) is reported as “clear after shaking”. Besides, the “Precipitate formation, directly” value in data set [4] (initially, before shaking) was “First: white precipitate;”. Besides, in data set [4], the “Precipitate formation, 5 min” value is on record as “clear”; the “Precipitate formation, 15 min” value is on record as “clear”; the “Precipitate formation, 30 min” value is given as “clear”; the “Precipitate formation, 60 min” value is “clear”. Moreover, the “Precipitate formation, 24 h” value in data set [4] is reported as “clear”. Also, in data set [5], the “Precipitate formation, directly” value is reported as “clear” and the “Precipitate formation, 24 h” value was “clear”.

What is called chromatographic logD is a lipophilicity value derived from retention on a column. The low end stands for a more hydrophilic compound, the high end for a more lipophilic compound.
